Data set [1] is described as follows: in vitro. The following applies: mouse, microsomes, pH 7.4.
The nature of data set [2]: physchem. The following applies: pH 7.4, aqueous buffer, kinetic from dmso stock.
For data set [3], the target named is Human Recombinant Cathepsin B (Homo sapiens, UniProt P07858). As to the kind of experiment: Cathepsin selectivity screening, Cat B (Z-Phe-Arg-AMC). The data set is classed as biochemical. The following applies: for IC50: Table 5, read-out: IC50 (μM) CatB.
A short description of data set [4]: in vitro. The following applies: human, microsomes, pH 7.4.
The target in data set [5] is recombinant M^Pro (Severe acute respiratory syndrome coronavirus 2, UniProt P0DTD1). Nature of the data set: SARS-CoV-2 Mpro screening and IC50 determination (QS1 fluorogenic substrate, Drag assay). The data set is classed as biochemical.
The nature of data set [6]: physchem. The following applies: pH 7.4.
The target in data set [7] is T1, Human Recombinant Cathepsin K (Homo sapiens, UniProt P43235).
T1 sequence (P43235 115-329): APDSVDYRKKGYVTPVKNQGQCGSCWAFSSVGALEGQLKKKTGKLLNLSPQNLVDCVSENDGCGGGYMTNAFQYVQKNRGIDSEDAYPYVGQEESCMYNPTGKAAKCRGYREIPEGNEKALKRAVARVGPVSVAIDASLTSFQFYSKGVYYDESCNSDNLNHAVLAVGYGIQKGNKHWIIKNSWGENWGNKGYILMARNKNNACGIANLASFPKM
As to the kind of experiment: Cathepsin selectivity screening, Cat K (Z-Phe-Arg-AMC). The following applies: Z-Phe-Arg-AMC substrate; for IC50: Table 5, read-out: IC50 (μM) CatK. The data set is classed as biochemical.

Data set [8] deals with Human Recombinant Cathepsin L (Homo sapiens, UniProt P07711). Nature of the data set: Cathepsin selectivity screening, Cat L (Z-Phe-Arg-AMC). The data set is classed as biochemical. The following applies: Z-Phe-Arg-AMC substrate; for IC50: Table 5, read-out: IC50 (μM) CatL.
Sequence of Human Recombinant Cathepsin L (P07711 114-333): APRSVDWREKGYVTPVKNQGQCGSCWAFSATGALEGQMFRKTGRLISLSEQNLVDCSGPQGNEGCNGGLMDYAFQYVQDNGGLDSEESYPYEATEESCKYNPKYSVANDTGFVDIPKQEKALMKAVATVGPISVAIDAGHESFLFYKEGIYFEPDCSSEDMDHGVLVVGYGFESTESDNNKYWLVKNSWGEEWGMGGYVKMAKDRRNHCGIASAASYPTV
The nature of data set [9]: in vitro. The following applies: African monkey.
Data set [10] addresses Human Recombinant Cathepsin S (Homo sapiens, UniProt P25774). As to the kind of experiment: Cathepsin selectivity screening, Cat S (Z-Val-Val-Arg-AMC). The data set is classed as biochemical. The following applies: Z-Val-Val-Arg-AMC substrate; for IC50: Table 5, read-out: IC50 (μM) CatS.
The mark [11] stands for this setting: M^Pro IC50 (μM), recombinant M^Pro, Table 6.
Where [12] appears, read: IC50 (μM) M^Pro, recombinant M^Pro, 20 μM QS1 substrate, Table 5.

pIC50: −log10 of the molar value. In brackets after ≈: the same amount, converted by molar mass. Read-outs that look alike come from different tables or passages of the source.

Sequence of Human Recombinant Cathepsin S (P25774 115-331): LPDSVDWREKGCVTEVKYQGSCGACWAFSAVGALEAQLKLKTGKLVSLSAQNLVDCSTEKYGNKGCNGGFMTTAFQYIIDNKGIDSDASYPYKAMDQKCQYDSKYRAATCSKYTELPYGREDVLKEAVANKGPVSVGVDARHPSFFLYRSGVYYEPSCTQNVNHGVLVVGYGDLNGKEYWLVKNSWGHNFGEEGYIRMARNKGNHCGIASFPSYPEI

Consider `COc1cccc(-c2ccc(C(=O)N[C@@H](CC(C)C)C(=O)N[C@H](C#N)C[C@@H]3CCNC3=O)c(Cl)c2)c1` [18n], for which the results for the microsomal CLint at 1 μM in [1] and in data set [4] were 111 µL/min/mg and 40 µL/min/mg, respectively. In data set [2], the solubility (kinetic) is 34 µM (≈ 17.4 µg/mL). Besides, the pIC50 in [3] (Z-Phe-Arg-AMC substrate, Table 4, read-out: CatB IC50) was 6.94; in data set [7] (Table 4, read-out: CatK IC50), 6.48; in data set [8] (Table 4, read-out: CatL IC50), less than 5.00; in [10] (Table 4, read-out: CatS IC50), 7.81. Besides, the IC50 in data set [3] (Z-Phe-Arg-AMC substrate) was found to be 0.115 µM; in data set [5] (M^Pro IC50 (nM), Table 4) it was 49 nM; in data set [5] (M^Pro IC50 (μM), recombinant M^Pro, 20 μM QS1 substrate, Table 3), 49 nM; in [5] (setting [11]), 49 nM; in data set [7], 0.329 µM; in data set [10], 0.015 µM. Also, the logD in data set [6] was found to be 3.1. For the same compound, in data set [9], the CC50 was more than 100000 nM.

As to `COc1ccc(-c2ccc(C(=O)N3C[C@H]4[C@@H]([C@H]3C(=O)N[C@H](C#N)C[C@@H]3CCNC3=O)C4(C)C)c(Cl)c2)cc1` [22e], the microsomal CLint at 1 μM in data set [1] came out at 450 µL/min/mg; in [4], 183 µL/min/mg. In data set [2], this compound displayed a kinetic solubility of 97 µM (≈ 51.9 µg/mL). Further, in [3], the “activity against cathepsin B (in words)” value is given as “completely abolished”. Also, the 50% inhibitory concentration (IC50) in [3] (Z-Phe-Arg-AMC substrate) is more than 10 µM; in data set [5] (setting [12]) it was 87 nM; in data set [5] (setting [11]), 87 nM; in data set [7], 2.08 µM; in data set [8], more than 10 µM; in data set [10], 1.03 µM. Besides, the logD in data set [6] was 3.4. This compound also registered a CC50 in data set [9] of more than 100000 nM.

As for `COc1cccc(-c2ccc(C(=O)N3C[C@H]4[C@@H]([C@H]3C(=O)N[C@H](C#N)C[C@@H]3CCNC3=O)C4(C)C)c(Cl)c2)c1` [22f], the figures for the microsomal CLint at 1 μM in [1] and in data set [4] were 450 µL/min/mg and 209 µL/min/mg, respectively. In data set [2], this compound returned a solubility (kinetic) of 82 µM (≈ 43.9 µg/mL). The “activity against cathepsin B (in words)” value in data set [3] is reported as “completely abolished”. Moreover, the IC50 in data set [3] (Z-Phe-Arg-AMC substrate) is more than 10 µM; in data set [5] (setting [12]), 120 nM; in data set [5] (setting [11]), 120 nM; in [7], 4.52 µM; in data set [8], more than 10 µM; in data set [10] it was 1.29 µM. The same compound came in with a logD in data set [6] of 3.5. In data set [9], this compound registered a CC50 of more than 100000 nM.

As to `COc1ccc(-c2ccc(C(=O)N[C@@H](CC3CCCCC3)C(=O)N[C@H](C#N)C[C@@H]3CCNC3=O)c(Cl)c2)cc1` [23c], the IC50 was 0.104 µM in [3] (Z-Phe-Arg-AMC substrate); 77 nM in [5] (setting [12]); 77 nM in data set [5] (setting [11]); 1.52 µM in [7]; more than 10 µM in data set [8]; 0.011 µM in data set [10]. The compound further showed a CC50 in data set [9] of more than 100000 nM.

As to `COc1cccc(-c2ccc(C(=O)N[C@@H](CC3CCCCC3)C(=O)N[C@H](C#N)C[C@@H]3CCNC3=O)c(Cl)c2)c1` [23d], the IC50 was 0.137 µM in data set [3] (Z-Phe-Arg-AMC substrate); 94 nM in data set [5] (setting [12]); 0.887 µM in data set [7]; more than 10 µM in data set [8]; 0.011 µM in data set [10]. The compound further displayed a CC50 in data set [9] of more than 100000 nM.

Source of the values: PMC12516390 (ACS Medicinal Chemistry Letters, 2025).
